According to the NIST ThermoML archive (doi:10.1016/j.tca.2016.06.014):
“And” between values parts separate entries of the source, which are not always exact repeats. Equal entries are not always repeated.

What was measured:
[1] = Molar enthalpy of transition or fusion; details: DSC
[2] = for vapor or sublimation pressure: Transpiration method; for Triple point temperature: DSC; for Normal melting temperature: DTA

BrC12CC3CC(CC(C3)C1)C2 [1-bromotricyclo[3.3.1.1(3,7)]decane]
Details	Molar enthalpy of transition or fusion, [1] [kcal/mol]	Triple point temperature, [2] [K]
Crystal 1	1.15	390.9
Crystal 2	1.77	311.6

vapor or sublimation pressure [kPa], [2]
Details	298.2 K	303.2 K	313.2 K	317.3 K	320.2 K	323.2 K	325.7 K	328.2 K	333.1 K	337.1 K
Crystal 1	–	–	0.0166	0.02262	0.02932	0.03504	0.04244	0.04954	0.06913	0.08922
Crystal 2	0.00419	0.00677	–	–	–	–	–	–	–	–

ClC12CC3CC(CC(C3)C1)C2 [1-chlorotricyclo[3.3.1.1(3,7)]decane]
Crystal
Details	Molar enthalpy of transition or fusion [kcal/mol]	Normal melting temperature [°C]
[1]	1.24	–
[2]	–	165.8

[2], Crystal
Details	vapor or sublimation pressure
298.5 K	0.01172 kPa
301 K	0.01402 kPa
303.2 K	0.01766 kPa
303.4 K	0.01712 kPa
306.3 K	0.02255 kPa
308.3 K	0.02567 kPa
308.4 K	0.02653 kPa
311.4 K	0.03389 kPa
313.3 K	0.0365 kPa
316.2 K	0.04719 kPa
318.2 K	0.05137 kPa and 0.05598 kPa
323.2 K	0.07923 kPa
323.3 K	0.0762 kPa
326.2 K	0.09623 kPa
328.2 K	0.1033 kPa and 0.11 kPa
330.7 K	0.1198 kPa
333.2 K	0.1492 kPa
333.4 K	0.1437 kPa

BrC1C2CC3CC(C2)CC1C3 (stereo unspecified) [2-bromoadamantane]
Crystal
Details	Molar enthalpy of transition or fusion [kcal/mol]	Normal melting temperature [°C]
[1]	1	–
[2]	–	141.6

[2], Crystal
Details	vapor or sublimation pressure [kPa]
298.5 K	0.00329
300.9 K	0.0039
303.4 K	0.00475
308.4 K	0.00703
313.3 K	0.01089
318.2 K	0.01506
323.2 K	0.02279
328.2 K	0.03107
333.2 K	0.04422
338.2 K	0.06437
340.1 K	0.07403
343.1 K	0.08635

ClC1C2CC3CC(C2)CC1C3 (stereo unspecified) [2-chlorotricyclo[3.3.1.1(3,7)]decane]
Crystal
Details	Molar enthalpy of transition or fusion [kcal/mol]	Normal melting temperature [°C]
[1]	1.51	–
[2]	–	195.0

[2], Crystal
Details	vapor or sublimation pressure
298.6 K	0.00623 kPa
301.6 K	0.0076 kPa
303.5 K	0.00901 kPa
308.4 K	0.01307 kPa
310.3 K	0.01568 kPa
313.3 K	0.0191 kPa
313.5 K	0.01927 kPa and 0.01999 kPa and 0.01925 kPa
315.3 K	0.0223 kPa
318.2 K	0.02668 kPa
323.5 K	0.03885 kPa
328.2 K	0.05574 kPa
333.2 K	0.07877 kPa
335.7 K	0.08972 kPa
338.2 K	0.106 kPa

BrC1CCCCC1 [bromocyclohexane]
[2], Liquid
Details	vapor or sublimation pressure [kPa]
277.5 K	0.105
280 K	0.1251
281.7 K	0.1422
283.6 K	0.1639
285.5 K	0.1872
287.4 K	0.21
288.8 K	0.2298
289.3 K	0.2446
291.3 K	0.2704
293.2 K	0.3182
295.3 K	0.3668
297.3 K	0.4161
